Test results as given in patent publication US20060270591A1, “Androgen receptor coregulators” (priority 2002, published 2006).

Legend:
[1] = tested on: AR; assay: AR reporter gene assay with gelsolin (Example 5); assay type: cell-based, human; details: 100 nM HF; normal 10% FCS medium; no gelsolin
Source text: 468. A C-terminal fragment of gelsolin (aa 281-731) was isolated from pACT2 encoding gelsolin, and inserted into pSG5-Gal4 DNA-binding domain (DBD) (constructed by Dr. R. Nakao). AR fragment (aa 36-918) was inserted into pCMX-VP16 (a gift from Dr. D. Chen). For gelsolin expression vector, a full-length cDNA fragment of gelsolin from LKCG, a gift from Dr. D. Kwiatkowski (Northwestern University, Evanston, Ill.), was inserted into pSG5. Dr. M. L. Lu (Harvard Medical School, Boston, Mass.) provided the p (ARE) 4-luciferase (LUC) plasmid. Dr. A. Mizokami (University of Kanazawa, Kanazawa, Japan) provided the pGL3-PSA6.0LUC plasmid. The expression plasmids of AR peptides were constructed by inserting the PCR amplified cDNA fragment of AR DBD into pFlag-CMV (Sigma) and the fragments of AR LBD into pCDNA-flag plasmid. Transfection protocol and reporter gene assay were described in previous report (Ting et al. Proc Natl Acad Sci USA 99, 661-666 (2002)).

[2] = target: mtARt877s and gelsolin (Homo sapiens, UniProt P10275, T878S); details: 10 μM HF, 100 nM DHT, 1 μM E2, 1 μM P; compared to EtOH
Source text: Y190 yeast cells were transformed with pAS2-mtARt877s (aa 595-918) and pATC2-gelsolin (aa 281-731).

[3] = target: wtAR and gelsolin (Homo sapiens, UniProt P10275); details: COS-7 cells; T 10 nM; HF 1 μM
[4] = tested on: AR; assay: AR transactivation reporter assay (CAT/LUC) with ARA267 (Example 4); assay type: cell-based, human
Description: (§1) 444. Human prostate cancer cell line PC-3 and DU145, lung cancer cell line H1299, and hepatoma cell line HepG2 were grown in DMEM-10% FCS. For transfection the cells were plated in 60-mm dishes and experiments performed by modified calcium phosphate technique as previously described (Yeh et al. Proc. Natl. Acad. Sci. U.S.A. (1996) 93, 5517-5521). After incubation for 24 h, the cells were treated with steroid hormones for another 24 h, then harvested for the chloramphenicol acetyltransferase (CAT) assay. Mouse mammary tumor virus-(MMTV)-CAT reporter gene was used to measure AR transcription activity, and a β-Galactosidase expression gene (pCMV-O-gal) was incorporated into the experiments as an internal control (Yeh et al. Proc. Natl. Acad. Sci. U.S.A. (1996) 93, 5517-5521). CAT activity was visualized by a PhosphorImager (Molecular Dynamics) and quantitated by IMAGEQUANT software (molecular Dynamics). For Luciferase (LUC) assay, pG5-LUC, pMMTV-LUC or estrogen response element (ERE)-LUC plasmid was used as the reporter gene and SV40-PRL (promega) was used as an internal control. Dual-luciferase Reporter 1000 Assay System (promega) was employed to measure the luciferase activity.

[5] = tested on: PSA; assay: Western blot of PSA in LNCaP cells transfected with ARA267; assay type: cell-based, human; details: 10 nM DHT
Description: 447. LNCaP cells were transfected with pSG5ARA267 and pSG5 vector by Superfect (Qiagen) respectively. […] The cells were harvested and lysed following the protocol from Santa Cruz Biotechnology. In each sample, 50 μg whole-cell lysis proteins were separated on 10% SDS-polyacrylamide gel. After transfering, the membrane was blotted with polyclonal AR antibody (NH27), PSA antibody (Dako Corporation), and β-actin antibody (Santa Cruz Biotechnology). The bands were developed with an alkaline phosphatase detection kit (Bio-Rad).

[6] = target: T1, ER (Homo sapiens, UniProt P03372); assay: ER transactivation luciferase assay with ARA267; assay type: cell-based; set-up: expressed in transfected cells; host or cells: DU145, HepG2, PC3; details: HepG2 cells
T1 sequence (P03372 1-595): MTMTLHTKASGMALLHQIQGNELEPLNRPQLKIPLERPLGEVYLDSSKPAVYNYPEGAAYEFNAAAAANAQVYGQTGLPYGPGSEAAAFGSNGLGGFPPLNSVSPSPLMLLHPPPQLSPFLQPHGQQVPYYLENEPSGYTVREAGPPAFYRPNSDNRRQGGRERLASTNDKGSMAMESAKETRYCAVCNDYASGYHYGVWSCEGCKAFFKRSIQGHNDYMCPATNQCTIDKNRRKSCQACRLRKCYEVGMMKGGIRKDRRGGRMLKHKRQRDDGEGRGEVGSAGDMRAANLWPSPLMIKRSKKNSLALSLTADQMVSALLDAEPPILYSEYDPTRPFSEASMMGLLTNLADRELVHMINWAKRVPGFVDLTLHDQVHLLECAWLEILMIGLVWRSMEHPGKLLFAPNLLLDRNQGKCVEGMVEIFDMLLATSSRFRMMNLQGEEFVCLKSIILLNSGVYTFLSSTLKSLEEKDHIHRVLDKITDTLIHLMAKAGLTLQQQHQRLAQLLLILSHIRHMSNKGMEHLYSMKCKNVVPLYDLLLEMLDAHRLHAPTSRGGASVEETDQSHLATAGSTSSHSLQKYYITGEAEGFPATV
Description: (§2) 31. […] The luciferase activity of each receptor without ARA267 and ligands was set as one fold. All values represent the mean SD of three independent experiments.
as §1

[7] = target: T2, GR (Homo sapiens, UniProt P04150); assay: GR transactivation luciferase assay with ARA267; assay type: cell-based; set-up: expressed in transfected cells; host or cells: DU145, PC-3, HepG2; details: HepG2 cells
T2 sequence (P04150 1-777): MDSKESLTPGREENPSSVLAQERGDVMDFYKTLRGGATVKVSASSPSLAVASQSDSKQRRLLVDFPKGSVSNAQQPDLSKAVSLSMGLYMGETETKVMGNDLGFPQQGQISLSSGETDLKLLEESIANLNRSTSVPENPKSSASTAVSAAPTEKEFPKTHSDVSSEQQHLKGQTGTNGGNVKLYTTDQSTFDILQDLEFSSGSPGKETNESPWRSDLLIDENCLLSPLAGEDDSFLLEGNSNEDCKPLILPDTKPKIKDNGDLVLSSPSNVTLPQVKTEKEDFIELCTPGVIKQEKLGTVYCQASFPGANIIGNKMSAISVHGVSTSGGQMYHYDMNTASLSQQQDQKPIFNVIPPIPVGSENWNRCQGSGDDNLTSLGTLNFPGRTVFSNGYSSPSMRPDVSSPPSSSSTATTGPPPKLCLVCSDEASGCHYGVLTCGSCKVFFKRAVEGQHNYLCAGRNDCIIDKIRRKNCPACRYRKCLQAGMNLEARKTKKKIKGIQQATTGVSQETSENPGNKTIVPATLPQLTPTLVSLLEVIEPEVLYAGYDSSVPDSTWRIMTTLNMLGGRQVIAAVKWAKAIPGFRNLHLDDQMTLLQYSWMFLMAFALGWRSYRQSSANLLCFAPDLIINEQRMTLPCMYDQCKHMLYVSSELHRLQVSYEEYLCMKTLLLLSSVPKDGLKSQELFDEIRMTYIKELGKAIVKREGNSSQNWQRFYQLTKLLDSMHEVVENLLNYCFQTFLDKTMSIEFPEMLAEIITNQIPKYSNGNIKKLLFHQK
Description: as §2, §1

Molecule | inhibition of AR transactivation [1] [%] | interaction between mtARt877s and gelsolin (β-gal activity) [2] | interaction between wtAR and gelsolin [3] | effect on AR transactivation ([4]; 10 nM E2) | effect on DHT-mediated AR transactivation ([4]; PC-3 cells, MMTV-CAT) | effect on DHT-induced PSA protein expression [5] | effect on the transactivation of ER [6] | effect on the transactivation of GR [7]
CC(C)(O)C(=O)Nc1ccc([N+](=O)[O-])c(C(F)(F)F)c1 [HF, hydroxyflutamide] | 80 | promoted significant interaction | induced significant interaction | – | – | – | – | –
ARA267: AR coregulator of 2427 amino acids containing a SET domain, calculated molecular weight 267 kD | – | – | – | marginal effects | enhance DHT-mediated AR transactivation in a dose-dependent manner | enhance DHT-induced PSA protein expression | marginal effect | marginal effect
